From paper PMC10046961, “High-Throughput Screening Assay for Detecting Drug-Induced Changes in Synchronized Neuronal Oscillations and Potential Seizure Risk Based on Ca^2+ Fluorescence Measurements in Human Induced Pluripotent Stem Cell (hiPSC)-Derived Neuronal 2D and 3D Cultures” (Cells, 2023)
Where two headings read alike, the source gives them in different places. Marks after values point to notes of the source that are not given here.

Legend:
[1] = system: hiPSC-derived neurons co-cultured with human primary astrocytes in 2D; assay: Ca2+ transient oscillation assay (FDSS), 2D co-culture; assay type: cell-based; settings: Homo sapiens, 1 h, 60 min
Source text: (§1) In this study, we used cryopreserved excitatory neurons that were differentiated from human induced pluripotent stem cells (hiPSCs; Cat #: EX-SeV-CW50065) (Elixirgen Scientific, Inc., Baltimore, MD, USA). The hiPSCs used, namely, CW50065 were derived from a healthy person and distributed by the California Institute of Regenerative Medicine Human Induced Pluripotent Stem Cell Repository. Human iPSC-derived excitatory neurons were differentiated from CW50065 using a proprietary cocktail of differentiation-inducing factors called Quick-Neuron™ EX-SeV (Batch number: EX-SeV-CW50065-L; Elixirgen Scientific, Inc.), cryopreserved 3 days after differentiation induction and distributed. Human iPSC-derived excitatory neurons were recovered from cryopreservation and maintained essentially as instructed by the manufacturer.
(§2) Cryopreserved human primary astrocytes (#N7805100, Thermo Fisher Scientific, Waltham, MA, USA) were recovered as instructed by the manufacturer and seeded in a 10 cm dish at the density of 2,000,000 cells. The culture was maintained using the Human Astrocytes Kit (#N7805200, Thermo Fisher Scientific) for 12 days. Half of the culture medium was replaced with fresh medium every 2–3 days during the culture period. These astrocytes were harvested using StemPro™ Accutase™ Cell Dissociation Reagent (#A1110501, Thermo Fisher Scientific) when they reached confluency. These cells were cryopreserved in STEM-CELLBANKER® GMP grade (ZENOGEN PHARMA, Kohriyama, Fukushima Japan) at the density of 2,000,000 cells per vial as working stocks for co-culture with neurons in 2D and 3D conditions described below. After a working stock was recovered, astrocytes were directly mixed with hiPSC-derived neurons for plating without further expansion.
Live neurons (hiPSC neurons) and human primary astrocytes were recovered from cryopreservation as described above and seeded in each well of 384-well plates at the density of 10,000 cells (HiPSC-cortical neurons) and human primary astrocytes at 2500 cells (ratio 4:1). These co-cultures were maintained under the medium conditions recommended by the manufacturer, namely Medium N(G2P), to complete the differentiation of excitatory neurons for the first week. […] Half of the culture medium was replaced with fresh medium every 3–4 days during the culture period.
After the incubation, the culture medium containing Cal-520 was replaced with 50 μL of HBSS supplemented with 0.1 mM MgCl2, 2 mM CaCl2, 10 mM HEPES, and 10 mM glucose and incubated at 37 ℃ for 15 min.
(§3) Prior to the fluorescence measurements, all wells to be measured were treated with 0.04% dimethyl sulfoxide (DMSO) to stabilize the oscillation signal. The first recording started 10 min after the addition of DMSO for each plate for 20 min. The effects of the test compound were recorded again starting 60 min after the administration of compounds, for 20 min.
Twenty-five compounds (Table 1) were first dissolved in either DMSO (most compounds) or distilled water depending on the compound, and further diluted with PBS to produce stock solutions concentrated 10-fold. […] The final concentration of DMSO was adjusted to 0.1%. Changes in the fluorescence intensity (FI) produced by Ca^2+ flux were measured at 37 °C for all wells of a 384-well plate simultaneously using the FDSS/µCell system (#C13299, Hamamatsu Photonics, Hamamatsu, Shizuoka, Japan). The excitation and the emission wavelengths were 470 nm and 540 nm, respectively. The recording duration was 20 min with a sampling frequency of 2 Hz for cells cultured under 2D conditions and 10 Hz for cells cultured under 3D conditions.

[2] = system: hiPSC-derived neurons co-cultured with human primary astrocytes in 3D; assay: Ca2+ transient oscillation assay (FDSS), 3D spheroids; assay type: cell-based; settings: 60 min
Source text: as §1, §2
We used U-shaped-bottom 96-well plates (#174925, Thermo Fisher Scientific) without any prior coating to make a spheroid in each well. Neurons and astrocytes were seeded and maintained as described for 2D cultures, except for the following modifications. First, neurons and astrocytes were seeded in each well of the 96-well plates at the density of 8000 hiPSC neurons with 8000 human primary astrocytes (8000)/well (ratio 1:1). Second, when the differentiation of excitatory neurons was completed one week after seeding, cells were fed with BrainPhys^TM Neuronal Medium (#05793, […] Technologies, Vancouver, BC, Canada) supplemented with 2% SM1 Neuronal Supplement, 1% N2 Supplement-A, and 10% Neuron culture medium for 5 weeks.
Cells maintained as spheroids (3D) in the U-shaped-bottom 96-well plates were transferred into 384-well spheroid plates (#4516, Merck, Corning, NY, USA) with 25 µL of the culture medium. A Ca^2+-indicating dye solution including […] was prepared using the EarlyTox™ Cardiotoxicity Kit (#R8211, Molecular Devices, LLC, San Jose, CA, USA) according to the manufacturer. Then, the same volume of the dye solution was dispensed into each well.
as §3
Twenty-five compounds (Table 1) were first dissolved in either DMSO (most compounds) or distilled water depending on the compound, and further diluted with PBS to produce stock solutions concentrated 10-fold. Then, 5 μL of each compound solution was injected into each well using an automatic pipetting robot (#4505, ASSIST PLUS pipetting robot, Integra Biosciences Corp., Hudson, NH, USA), so that the final concentration of each compound was 1-fold nominal in the well.

[3] = read-out: Area under the curve - 2D Mean
[4] = read-out: Peak amplitude - 2D Mean
[5] = read-out: Peak-to-peak interval - 2D Mean

Structure (SMILES): C[C@]12N[C@H](Cc3ccccc31)c1ccccc12 [MK-801, Dizocilpine]
- activation at 0.11 µM [1, 3]: -35.7%
- activation at 0.11 µM ([1]; read-out: Peak Number—2D Mean): -82.8%
- activation at 0.11 µM [1, 4]: -41.8%
- activation at 0.11 µM ([1]; read-out: Peak width - 2D Mean): -3.2%
- activation at 0.11 µM [1, 5]: 204%
- activation at 0.33 µM [1, 3]: -57%
- activation at 0.33 µM ([1]; read-out: Peak Number—2D Mean): -90.4%
- activation at 0.33 µM [1, 4]: -63.6%
- activation at 0.33 µM ([1]; read-out: Peak width - 2D Mean): -23.6%
- activation at 0.33 µM [1, 5]: 3.6%
- activation at 1 µM [1, 3]: -57.4%
- activation at 1 µM ([1]; read-out: Peak Number—2D Mean): -84.6%
- activation at 1 µM [1, 4]: -58.6%
- activation at 1 µM ([1]; read-out: Peak width - 2D Mean): -32.8%
- activation at 1 µM [1, 5]: -57.4%
- activation at 3 µM [1, 3]: -79.8%
- activation at 3 µM ([1]; read-out: Peak Number—2D Mean): -96.3%
- activation at 3 µM [1, 4]: -79.7%
- activation at 3 µM ([1]; read-out: Peak width - 2D Mean): -70%
- activation at 3 µM [1, 5]: -100%
- Area under the curve - 3D Mean ([2]; 0.11 µM): 127.3 % change from baseline
- Peak Number—3D Mean ([2]; 0.11 µM): −49.1 * % change from baseline
- Peak amplitude - 3D Mean ([2]; 0.11 µM): 104.7 % change from baseline
- Peak width - 3D Mean ([2]; 0.11 µM): 8.0 % change from baseline
- Peak-to-peak interval - 3D Mean ([2]; 0.11 µM): 76.1 % change from baseline
- Area under the curve - 3D Mean ([2]; 0.33 µM): 66.6 % change from baseline
- Peak Number—3D Mean ([2]; 0.33 µM): −67.3 ** % change from baseline
- Peak amplitude - 3D Mean ([2]; 0.33 µM): 76.2 % change from baseline
- Peak width - 3D Mean ([2]; 0.33 µM): −29.3 % change from baseline
- Peak-to-peak interval - 3D Mean ([2]; 0.33 µM): 66.4 % change from baseline
- Area under the curve - 3D Mean ([2]; 1 µM): -66.9 % change from baseline
- Peak Number—3D Mean ([2]; 1 µM): −97.2 ** % change from baseline
- Peak amplitude - 3D Mean ([2]; 1 µM): −64.1 % change from baseline
- Peak width - 3D Mean ([2]; 1 µM): −85.8 % change from baseline
- Peak-to-peak interval - 3D Mean ([2]; 1 µM): −100.0 % change from baseline
- Area under the curve - 3D Mean ([2]; 3 µM): 41.0 % change from baseline
- Peak Number—3D Mean ([2]; 3 µM): −84.8 ** % change from baseline
- Peak amplitude - 3D Mean ([2]; 3 µM): 67.2 % change from baseline
- Peak width - 3D Mean ([2]; 3 µM): −36.8 % change from baseline
- Peak-to-peak interval - 3D Mean ([2]; 3 µM): −100.0 % change from baseline
